Test results: PubChem BioAssay (NCI)
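These data come from cells grown in 96-well plates and exposed to compound for 48 hours at five concentrations. TGI denotes the concentration required for complete inhibition of growth.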

Legend:
Test in all cases: NCI anticancer screen, dose series, 48 h
HS 578T breast = tested on: HS 578T breast
HCT-116 colon = tested on: HCT-116 colon
M14 melanoma = tested on: M14 melanoma
EKVX NSCLC = tested on: EKVX NSCLC
BT-549 breast = tested on: BT-549 breast
HCT-15 colon = tested on: HCT-15 colon
MOLT-4 leukemia = tested on: MOLT-4 leukemia
NCI-H460 lung = tested on: NCI-H460 lung
HOP-62 NSCLC = tested on: HOP-62 NSCLC
SK-OV-3 ovarian = tested on: SK-OV-3 ovarian
SW-620 colon = tested on: SW-620 colon
MDA-MB-231 breast = tested on: MDA-MB-231 breast
U251 CNS = tested on: U251 CNS
COLO 205 colon = tested on: COLO 205 colon
SK-MEL-5 melanoma = tested on: SK-MEL-5 melanoma
UO-31 renal = tested on: UO-31 renal
NCI/ADR-RES ovarian = tested on: NCI/ADR-RES ovarian
SF-268 CNS = tested on: SF-268 CNS
CCRF-CEM leukemia = tested on: CCRF-CEM leukemia
NCI-H226 lung = tested on: NCI-H226 lung
SR leukemia = tested on: SR leukemia
NCI-H23 lung = tested on: NCI-H23 lung
HCC-2998 colon = tested on: HCC-2998 colon
OVCAR-8 ovarian = tested on: OVCAR-8 ovarian
UACC-62 melanoma = tested on: UACC-62 melanoma
TK-10 renal = tested on: TK-10 renal
NCI-H522 lung = tested on: NCI-H522 lung
ACHN renal = tested on: ACHN renal
RXF 393 renal = tested on: RXF 393 renal
OVCAR-5 ovarian = tested on: OVCAR-5 ovarian
786-0 renal = tested on: 786-0 renal
SNB-19 CNS = tested on: SNB-19 CNS
UACC-257 melanoma = tested on: UACC-257 melanoma
MDA-N = tested on: MDA-N
SF-539 CNS = tested on: SF-539 CNS
RPMI-8226 leukemia = tested on: RPMI-8226 leukemia
A498 renal = tested on: A498 renal
PC-3 prostate = tested on: PC-3 prostate
OVCAR-4 ovarian = tested on: OVCAR-4 ovarian
MALME-3M melanoma = tested on: MALME-3M melanoma
DU-145 prostate = tested on: DU-145 prostate
T-47D breast = tested on: T-47D breast
CAKI-1 renal = tested on: CAKI-1 renal
SK-MEL-2 melanoma = tested on: SK-MEL-2 melanoma
HOP-92 NSCLC = tested on: HOP-92 NSCLC
K-562 leukemia = tested on: K-562 leukemia
SNB-75 CNS = tested on: SNB-75 CNS
SF-295 CNS = tested on: SF-295 CNS
MCF7 breast = tested on: MCF7 breast
LOX IMVI melanoma = tested on: LOX IMVI melanoma
SN12C renal = tested on: SN12C renal
IGROV1 ovarian = tested on: IGROV1 ovarian
HT29 colon = tested on: HT29 colon
A549 NSCLC = tested on: A549 NSCLC
MDA-MB-435 = tested on: MDA-MB-435
SK-MEL-28 melanoma = tested on: SK-MEL-28 melanoma
HL-60(TB) leukemia = tested on: HL-60(TB) leukemia
KM12 colon = tested on: KM12 colon
OVCAR-3 ovarian = tested on: OVCAR-3 ovarian

Compound: Nc1nc(=O)n(C2CC(O)C(CO)O2)c2nc(-c3ccc(-c4ccccc4)cc3)cnc12 (stereo not given)
- TGI (HS 578T breast): 93.9 µM
- TGI (HCT-116 colon): > 100 µM
- TGI (M14 melanoma): > 100 µM
- TGI (EKVX NSCLC): > 100 µM
- TGI (BT-549 breast): > 100 µM
- TGI (HCT-15 colon): > 100 µM
- TGI (MOLT-4 leukemia): 76 µM
- TGI (NCI-H460 lung): > 100 µM
- TGI (HOP-62 NSCLC): 82.9 µM
- TGI (SK-OV-3 ovarian): > 100 µM
- TGI (SW-620 colon): > 100 µM
- TGI (MDA-MB-231 breast): 50.1 µM
- TGI (U251 CNS): 42.6 µM
- TGI (COLO 205 colon): > 100 µM
- TGI (SK-MEL-5 melanoma): > 100 µM
- TGI (UO-31 renal): > 100 µM
- TGI (NCI/ADR-RES ovarian): > 100 µM
- TGI (SF-268 CNS): 79 µM
- TGI (CCRF-CEM leukemia): > 100 µM
- TGI (NCI-H226 lung): 64.9 µM
- TGI (SR leukemia): > 100 µM
- TGI (NCI-H23 lung): > 100 µM
- TGI (HCC-2998 colon): > 100 µM
- TGI (OVCAR-8 ovarian): > 100 µM
- TGI (UACC-62 melanoma): 61.1 µM
- TGI (TK-10 renal): > 100 µM
- TGI (NCI-H522 lung): 48.9 µM
- TGI (ACHN renal): > 100 µM
- TGI (RXF 393 renal): > 100 µM
- TGI (OVCAR-5 ovarian): > 100 µM
- TGI (786-0 renal): > 100 µM
- TGI (SNB-19 CNS): 91.1 µM
- TGI (UACC-257 melanoma): > 100 µM
- TGI (MDA-N): > 100 µM
- TGI (SF-539 CNS): > 100 µM
- TGI (RPMI-8226 leukemia): > 100 µM
- TGI (A498 renal): > 100 µM
- TGI (PC-3 prostate): > 100 µM
- TGI (OVCAR-4 ovarian): > 100 µM
- TGI (MALME-3M melanoma): > 100 µM
- TGI (DU-145 prostate): > 100 µM
- TGI (T-47D breast): 57.4 µM
- TGI (CAKI-1 renal): > 100 µM
- TGI (SK-MEL-2 melanoma): > 100 µM
- TGI (HOP-92 NSCLC): > 100 µM
- TGI (K-562 leukemia): > 100 µM
- TGI (SNB-75 CNS): 66.8 µM
- TGI (SF-295 CNS): > 100 µM
- TGI (MCF7 breast): 54.1 µM
- TGI (LOX IMVI melanoma): > 100 µM
- TGI (SN12C renal): > 100 µM
- TGI (IGROV1 ovarian): > 100 µM
- TGI (HT29 colon): > 100 µM
- TGI (A549 NSCLC): > 100 µM
- TGI (MDA-MB-435): > 100 µM

Compound: COc1ccccc1NC(=O)C(=O)C(C#N)CC(C)(C)C=O (stereo not given)
- TGI (HS 578T breast): > 100 µM
- TGI (HCT-116 colon): > 100 µM
- TGI (M14 melanoma): > 100 µM
- TGI (EKVX NSCLC): > 100 µM
- TGI (BT-549 breast): > 100 µM
- TGI (HCT-15 colon): > 100 µM
- TGI (MOLT-4 leukemia): > 100 µM
- TGI (NCI-H460 lung): > 100 µM
- TGI (HOP-62 NSCLC): > 100 µM
- TGI (SK-OV-3 ovarian): > 100 µM
- TGI (SW-620 colon): > 100 µM
- TGI (MDA-MB-231 breast): > 100 µM
- TGI (U251 CNS): > 100 µM
- TGI (SK-MEL-5 melanoma): > 100 µM
- TGI (UO-31 renal): > 100 µM
- TGI (NCI/ADR-RES ovarian): > 100 µM
- TGI (SF-268 CNS): > 100 µM
- TGI (NCI-H226 lung): > 100 µM
- TGI (SR leukemia): > 100 µM
- TGI (NCI-H23 lung): > 100 µM
- TGI (HCC-2998 colon): > 100 µM
- TGI (OVCAR-8 ovarian): > 100 µM
- TGI (UACC-62 melanoma): > 100 µM
- TGI (TK-10 renal): > 100 µM
- TGI (NCI-H522 lung): > 100 µM
- TGI (ACHN renal): > 100 µM
- TGI (RXF 393 renal): > 100 µM
- TGI (SK-MEL-28 melanoma): > 100 µM
- TGI (OVCAR-5 ovarian): > 100 µM
- TGI (786-0 renal): > 100 µM
- TGI (UACC-257 melanoma): > 100 µM
- TGI (MDA-N): > 100 µM
- TGI (SF-539 CNS): > 100 µM
- TGI (RPMI-8226 leukemia): > 100 µM
- TGI (A498 renal): > 100 µM
- TGI (PC-3 prostate): > 100 µM
- TGI (OVCAR-4 ovarian): > 100 µM
- TGI (MALME-3M melanoma): > 100 µM
- TGI (T-47D breast): > 100 µM
- TGI (CAKI-1 renal): > 100 µM
- TGI (HL-60(TB) leukemia): > 100 µM
- TGI (SK-MEL-2 melanoma): > 100 µM
- TGI (KM12 colon): > 100 µM
- TGI (HOP-92 NSCLC): > 100 µM
- TGI (K-562 leukemia): > 100 µM
- TGI (SNB-75 CNS): > 100 µM
- TGI (SF-295 CNS): > 100 µM
- TGI (MCF7 breast): > 100 µM
- TGI (LOX IMVI melanoma): > 100 µM
- TGI (SN12C renal): > 100 µM
- TGI (OVCAR-3 ovarian): > 100 µM
- TGI (IGROV1 ovarian): > 100 µM
- TGI (HT29 colon): > 100 µM
- TGI (A549 NSCLC): > 100 µM
- TGI (MDA-MB-435): > 100 µM
